Measured values published in EP0734445B1, “CHIMERIC GENES AND METHODS FOR INCREASING THE LYSINE CONTENT OF THE SEEDS OF CORN, SOYBEAN AND RAPESEED PLANTS” (priority 1993, dated 1995).

What was measured:
Corynebacterium DHDPS = molecular target: T1, Corynebacterium DHDPS (Corynebacterium glutamicum, UniProt P19808, S2A); experiment: DHDPS enzyme activity assay; format: biochemical; conditions: lysine at 70 mM in the enzyme reaction mix
T1 construct: An 870 bp Nco I-EcoR I fragment from pFS766 containing the entire cordapA coding region; made in house; host or cells: E. coli BL21(DE3)/pFS766, supernatant of uninduced extract
Experimental: (§1) DHDPS enzyme activity was assayed as follows: Assay mix (for 10 X 1.0 mL assay tubes or 90 X 0.25 mL for microtiter dish); made fresh, just before use:
(§2) Color allowed to develop for 30-60 min. Precipitate spun down in eppendorf centrifuge. OD540 vs 0 min read as blank. For MicroAssay, aliquot 0.2 mL into microtiter well and read at OD530.
(§3) The specific activity of E. coli DHDPS in the supernatant fraction of induced extracts was about 50 OD540 units per minute per milligram protein in a 1.0 mL assay. E. coli DHDPS was sensitive to the presence of L-lysine in the assay. Fifty percent inhibition was found at a concentration of about 0.5 mM. For Corynebacterium DHDPS, the activity was measured in the supernatant fraction of uninduced extracts, rather than induced extracts. Enzyme activity was about 4 OD530 units per minute per milligram protein in a 0.25 mL assay.

E. coli DHDPS = molecular target: T2, E. coli DHDPS (Escherichia coli, UniProt P0A6L2, F2V); experiment: DHDPS enzyme activity assay; format: biochemical
T2 construct: An 880 bp Nco I-Kpn I fragment from pBT443 containing the entire ecodapA coding region; made in house; host or cells: E. coli BL21(DE3)/pBT442, supernatant of IPTG-induced extract
Experimental: as §1, §2, §3

wild type AKIII = molecular target: T3, wild type AKIII (Escherichia coli, UniProt P08660); experiment: Inhibition of AKIII by lysine; format: biochemical, E. coli
T3 construct: made in house; host or cells: E. coli (pBT436 in AK-deficient strain Gif106M1)
Experimental: (§4) Single colonies of Gif106M1 transformed with pBT436 were picked and resuspended in 200 µL of a mixture of 100 µL 1% lysine plus 100 µL of M9 media. The entire cell suspension containing 10^7-10^8 cells was spread on a petri dish containing M9 media supplemented with the arginine, isoleucine, and ampicillin. Sixteen petri dishes were thus prepared. From 1 to 20 colonies appeared on 11 of the 16 petri dishes. One or two (if available) colonies were picked and retested for lysine resistance and from this nine lysine-resistant clones were obtained. Plasmid DNA was prepared from eight of these and re-transformed into Gif106M1 to determine whether the lysine resistance determinant was plasmid-borne. Six of the eight plasmid DNAs yielded lysine-resistant colonies. Three of these six carried lysC genes encoding AKIII that was uninhibited by 15mM lysine, whereas wild type AKIII is 50% inhibited by 0.3-0.4 mM lysine and >90% inhibited by 1 mM lysine (see Example 2 for details).

[1] = molecular target: T4, AKIII encoded by mutant lysC genes (Escherichia coli, UniProt P08660, T352I); experiment: Inhibition of AKIII by lysine (mutant lysC genes); format: biochemical, E. coli; conditions: 15mM lysine; three of six mutant lysC plasmids
T4 construct: made in house; host or cells: E. coli (mutant derivatives of pBT436 selected in Gif106M1; the extract used is not described)
Experimental: as §4
The sequences of the three mutant lysC genes that encoded lysine-insensitive AK each differed from the wild type sequence by a single nucleotide, resulting in a single amino acid substitution in the protein. […] Thus, either of these single amino acid substitutions is sufficient to render the AKIII enzyme insensitive to lysine inhibition.

[2] = tested on: Gif106M1 transformed with pBT436; experiment: Growth inhibition in M9 media; format: cell-based, E. coli; conditions: M9 media with arginine, isoleucine, ampicillin; reversed by threonine plus methionine
Experimental: Addition of lysine (or diaminopimelate which is readily converted to lysine in vivo) at a concentration of approximately 0.2 mM to the growth medium inhibits the growth of Gif106M1 transformed with pBT436. M9 media [see Sambrook et al. (1989) Molecular Cloning: a Laboratory Manual, Cold Spring Harbor Laboratory Press] supplemented with the arginine and isoleucine, required for Gif106M1 growth, and ampicillin, to maintain selection for the pBT436 plasmid, was used. This inhibition is reversed by addition of threonine plus methionine to the growth media. […] This property of pBT436-transformed Gif106M1 was used to select for mutations in lysC that encoded lysine-insensitive AKIII.

DE126 = experiment: Growth inhibition in synthetic medium; format: cell-based, E. coli
Description: To select clones that carried the LKR gene a specially designed E. coli host, DE126 was constructed. Construction of DE126 occurred in several stages. • (1) A generalized transducing stock of coliphage Plvir was produced by infection of a culture of TST1 [F^-, araD139, delta (argF-lac) 205, flb5301, ptsF25, relA1, rpsL150, malE52::Tn10, deoC1, λ^-] (E. coli Genetic Stock Center #6137) using a standard method (for Methods see J. Miller, Experiments in Molecular Genetics). • (2) This phage stock was used as a donor in a transductional cross (for Method see J. Miller, Experiments in Molecular Genetics) with strain GIF106M1 [F^-, arg-, ilvA296, lysC1001, thrA1101, metL1000, λ^-, rpsL9, malT1, xyl-7, mtl-2, thi1(?), supE44(?)] (E. coli Genetic Stock Center #5074) as the recipient. Recombinants were selected on rich medium [L supplemented with DAP] containing the antibiotic tetracycline. […] The genes malE and lysC are separated by less than 0.5 minutes, well within cotransduction distance. • (3) 200 tetracycline-resistant transductants were thoroughly phenotyped; appropriate fermentation and nutritional traits were scored. […] The phenotype of one clone was determined to be Ilv^+, Arg^-, TetR, Lysine-sensitive, male specific phage (MS2)-sensitive, consistent with the simple transfer of F'16 from AB1528 to DE125. […]

T2 sequence (P0A6L2 whole entry F2V, the tested form may be a part): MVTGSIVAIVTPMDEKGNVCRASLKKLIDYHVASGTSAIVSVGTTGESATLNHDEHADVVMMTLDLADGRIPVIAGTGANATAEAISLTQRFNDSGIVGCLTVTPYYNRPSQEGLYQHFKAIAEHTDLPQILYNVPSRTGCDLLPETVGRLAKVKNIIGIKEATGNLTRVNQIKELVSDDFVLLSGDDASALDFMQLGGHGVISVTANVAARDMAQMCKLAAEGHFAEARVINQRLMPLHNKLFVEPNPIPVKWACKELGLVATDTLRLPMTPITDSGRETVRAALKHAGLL
T1 sequence (P19808 whole entry S2A, the tested form may be a part): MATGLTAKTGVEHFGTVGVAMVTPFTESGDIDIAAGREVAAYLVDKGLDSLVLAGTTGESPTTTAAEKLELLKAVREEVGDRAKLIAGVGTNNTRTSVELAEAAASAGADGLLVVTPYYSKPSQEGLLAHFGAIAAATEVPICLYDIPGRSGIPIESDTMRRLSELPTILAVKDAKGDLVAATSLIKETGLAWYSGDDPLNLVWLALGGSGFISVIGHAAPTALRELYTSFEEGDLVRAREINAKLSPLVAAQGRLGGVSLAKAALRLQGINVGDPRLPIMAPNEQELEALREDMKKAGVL
T3 sequence (P08660 2-449): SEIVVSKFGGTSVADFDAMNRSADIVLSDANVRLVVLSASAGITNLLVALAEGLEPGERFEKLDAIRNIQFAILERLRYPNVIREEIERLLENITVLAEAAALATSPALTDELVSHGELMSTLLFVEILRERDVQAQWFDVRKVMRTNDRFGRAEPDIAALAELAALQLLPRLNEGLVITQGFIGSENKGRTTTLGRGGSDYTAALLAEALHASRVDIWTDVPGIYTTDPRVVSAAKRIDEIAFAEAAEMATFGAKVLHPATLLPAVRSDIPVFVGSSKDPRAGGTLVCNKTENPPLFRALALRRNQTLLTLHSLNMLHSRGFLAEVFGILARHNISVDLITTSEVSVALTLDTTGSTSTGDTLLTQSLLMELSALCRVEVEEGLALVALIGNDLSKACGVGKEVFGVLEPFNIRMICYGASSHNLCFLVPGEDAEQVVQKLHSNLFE
T4 sequence (P08660 whole entry T352I): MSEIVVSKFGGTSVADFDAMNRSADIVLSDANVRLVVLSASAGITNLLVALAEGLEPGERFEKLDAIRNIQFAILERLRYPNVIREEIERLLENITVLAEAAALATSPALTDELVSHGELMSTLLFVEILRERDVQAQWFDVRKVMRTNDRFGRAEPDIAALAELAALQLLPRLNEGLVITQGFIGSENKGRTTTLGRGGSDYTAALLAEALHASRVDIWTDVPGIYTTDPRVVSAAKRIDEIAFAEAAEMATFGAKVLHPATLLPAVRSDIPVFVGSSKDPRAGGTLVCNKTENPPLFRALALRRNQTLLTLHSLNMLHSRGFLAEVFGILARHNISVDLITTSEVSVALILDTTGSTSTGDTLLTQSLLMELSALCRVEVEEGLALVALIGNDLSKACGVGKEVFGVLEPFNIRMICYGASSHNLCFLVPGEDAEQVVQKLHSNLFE

Structure (SMILES)	inhibition by L-lysine (Corynebacterium DHDPS)	inhibition by L-lysine (Corynebacterium DHDPS; listed as lysine)	IC50 (E. coli DHDPS) [µM]	fold less sensitive to inhibition by lysine than a typical plant enzyme, e.g., wheat DHDPS (E. coli DHDPS)	inhibited (wild type AKIII; 1 mM lysine) [%]	IC50 (wild type AKIII; read-out: 50% inhibited, lysine concentration) [µM]	inhibition by lysine [1]	concentration in the growth medium that inhibits growth [2]	concentration of L-lysine that inhibits growth (DE126) [µg/mL]
NCCCC[C@H](N)C(=O)O [L-lysine]	not inhibited at all	unaffected	~500	at least 20 fold	> 90	300 to 400	uninhibited	approximately 0.2 mM	20
NC(CCCC(N)C(=O)O)C(=O)O (stereo not shown) [diaminopimelate]	–	–	–	–	–	–	–	approximately 0.2 mM	–
